This is an account of results in patent US12281118B2, “Nitrogen-containing fused heterocyclic SHP2 inhibitor compound, preparation method, and use” (SHANGHAI RINGENE BIOPHARMA CO., LTD., priority 2018, dated 2025).

A value given as a limit tells only on which side of the number the result lay.

For one assay, the target named is CYP2C8 (Homo sapiens (Human), UniProt P10632). Description: biochemical. Type of assay: in vitro ADME.
In a further assay the target is SHP2 enzyme (Homo sapiens (Human), UniProt Q06124). Put plainly: Inhibitory activity against SHP2 enzyme (Caliper conversion rate). The following applies: read-out: SHP2 Enzyme Inhibition IC50 Value. It counts as biochemical. As to the method: (1) Preparing 1×Reaction Buffer according to the BPS Biosciences' Instructions for Use of the SHP2 enzyme. (2) Preparing a compound concentration gradient: Test the test compound at 10 μM under 3× dilution for 10 concentrations, diluting to a 100% dimethyl sulfoxide solution at a 100× final concentration in a 384-well plate, and diluting the compound with Precision 4× for 10 concentrations. Transferring 250 nL of the compound at the 100× final concentration to a target plate OptiPlate-384F using a dispenser Echo 550. […] (3) Preparing the activation peptide solution at a 5× final concentration with the 1×Reaction Buffer, adding 5 μL of the solution to a reaction plate, respectively, and centrifuging at 1000 rpm for 1 min. (4) Preparing an enzyme solution at a 2.5× final concentration with the 1×Reaction Buffer, adding 10 μL of the solution to the reaction plate, respectively, centrifuging at 1000 rpm for 1 min, and incubating at room temperature for 60 min. (5) Preparing a substrate peptide solution at a 2.5× final concentration with the 1×Reaction Buffer, centrifuging at 1000 rpm for 1 min, and incubating at room temperature for 30 min. (6) Adding 30 μL of stop test solution to stop the reaction, centrifuging at 1000 rpm for […], and mixing well by shaking. (7) Reading the conversion rate with a Caliper EZ Reader. (7) Data analysis:
Wherein: Conversion %/_sample is the reading of a conversion rate of a sample; Conversion %_min: mean of negative control wells, which represents the reading of a conversion rate in absence of enzyme activity wells; Conversion %_max: mean of a ratio of positive control wells, which represents the reading of a conversion rate in absence of compound inhibition wells.

Another assay has as its system H358 (lung cancer cells). Put plainly: Cell proliferation inhibition, MTT. It counts as cell-based. The following applies: Homo sapiens, NCI-H358. As to the method:
(§1) Incubating cells such as KYSE520 (oesophageal cancer cells), H358 (lung cancer cells), Colo-205 (colorectal cancer cells), MiaPaca-2 (pancreas cancer cells), MOLM 13 (leukemia cells), NCI—H 1666 (lung cancer cells), NCI—H 508 (lung cancer), KATO III (gastric cancer), HEK 293A (normal cells), H3255 (lung cancer), H1975 (lung cancer), PC-9 (lung cancer), A549 (lung cancer), SNU16 (gastric cancer), and H1299 (lung cancer) in a 96-well plate at 100 µl/well and 20,000 cells/mL, and supplementing 10% fetal bovine serum and 1% penicillin/streptomycin sulfate. With 0.5% dimethyl sulfoxide as a blank control, treating the cells in a solution of the test compounds under 3× dilution at an initial concentration of 10 μM in eight gradients, and incubating the plate in an incubator with 5% CO2 for a certain period of time. At the end of the incubation, adding 10 μL of an MTT stock solution (5 mg/mL) to each well. Incubating the plates at 37° C. for 4 hours, and then removing the culture medium. Adding the dimethyl sulfoxide (100 μL) to each well, and then shaking well. Measuring the absorbance of a formazan product at 570 nm on a Thermo Scientific Varioskan Flash multi-mode reader. Fitting dose-response data to a three-parameter nonlinear regression model using GraphPad Prism 6.0 software to obtain IC50 values.

The next assay deals with NCI-H 508 (lung cancer). Description: Cell proliferation inhibition, MTT. It counts as cell-based. Conditions: Homo sapiens, NCI-H508. The protocol:
as §1

The subject of assay [1] is NCI-H1666 (lung cancer cells). Description: Cell proliferation inhibition, MTT. Type of assay: cell-based. The following applies: Homo sapiens. The protocol: as §1
Assay [2] deals with KATO III (gastric cancer). Description: Cell proliferation inhibition, MTT. Type of assay: cell-based. The following applies: Homo sapiens. The protocol: as §1
The subject of assay [3] is KYSE520 (oesophageal cancer cells). Put plainly: Cell proliferation inhibition, MTT. Type of assay: cell-based. The following applies: Homo sapiens, KYSE-520. As to the method:
as §1

A further assay relates to SNU16 (gastric cancer). Description: Cell proliferation inhibition, MTT. It counts as cell-based. The following applies: Homo sapiens; SNU 16. The protocol:
as §1

In a further assay the test system is MOLM 13 (leukemia cells). Description: Cell proliferation inhibition, MTT. Type of assay: cell-based. The following applies: Homo sapiens. The protocol:
as §1

The next assay deals with MV4-11 leukemia cells. Put plainly: Inhibition of proliferation of MV4-11 leukemia cells (CellTiter-Glo, 72 h). It counts as cell-based. Conditions: Homo sapiens, MV4-11, 72 h, read-out: IC50 value, MV4-11 cell proliferation. The protocol:
Specific experimental procedures: 1) At Day 0: Inoculating trypsin-digested cells in 96-well plate and suspending the plate in cell culture medium; measure cell density using an automatic cell counter, diluting the cells with the culture medium to appropriate density, adding 100 μl of cell suspension in the 96-well plate, and incubating a cell-free medium as a control well in a cell incubator with […] at 37° C. overnight; 2) Day 1: Treating test compounds of the cells using a drug for a total of 8 concentrations, and diluting at a 3× concentration, wherein 10 μM is a starting test concentration of the test compounds. […] IC50 values are obtained by a four-parameter regression using software attached to the plate reader (the specific results are shown in Table 2).
For orientation: Cellular ATP, detected with luciferase, serves as a proxy for viable cell number.

The target of the next assay is CYP1A2 (Homo sapiens (Human), UniProt P05177). Description: CYP direct inhibition test (DI test) in human liver microsomes. It counts as in vitro ADME. The protocol: Direct inhibition test (DI test): Incubating 100 μL of human liver microsomes (final concentration 0.2 mg/mL) containing NADPH (final concentration 1 mM), 10 μM of compound, a positive inhibitor cocktail (ketoconazole 10 μM, quinidine 10 μM, sulfaphenazole 100 μM, a-naphthoflavone 10 μM, and tranylcypromine 1,000 μM), a negative control (BPS containing 0.1% dimethyl sulfoxide) and a mixed probe substrate (midazolam 10 μM, testosterone 100 μM, dextromethorphan 10 μM, diclofenac 20 μM, phenacetin 100 μM, and mephenytoin 100 μM) for direct inhibition, and terminating the reaction after 20 min of the incubation. Calculating the relative enzyme activity by measuring the relative production of metabolites.
In general terms: Microsomes from liver hold many membrane-bound enzymes, among them those of drug oxidation.

Chain of SHP2 enzyme (Q06124 whole entry): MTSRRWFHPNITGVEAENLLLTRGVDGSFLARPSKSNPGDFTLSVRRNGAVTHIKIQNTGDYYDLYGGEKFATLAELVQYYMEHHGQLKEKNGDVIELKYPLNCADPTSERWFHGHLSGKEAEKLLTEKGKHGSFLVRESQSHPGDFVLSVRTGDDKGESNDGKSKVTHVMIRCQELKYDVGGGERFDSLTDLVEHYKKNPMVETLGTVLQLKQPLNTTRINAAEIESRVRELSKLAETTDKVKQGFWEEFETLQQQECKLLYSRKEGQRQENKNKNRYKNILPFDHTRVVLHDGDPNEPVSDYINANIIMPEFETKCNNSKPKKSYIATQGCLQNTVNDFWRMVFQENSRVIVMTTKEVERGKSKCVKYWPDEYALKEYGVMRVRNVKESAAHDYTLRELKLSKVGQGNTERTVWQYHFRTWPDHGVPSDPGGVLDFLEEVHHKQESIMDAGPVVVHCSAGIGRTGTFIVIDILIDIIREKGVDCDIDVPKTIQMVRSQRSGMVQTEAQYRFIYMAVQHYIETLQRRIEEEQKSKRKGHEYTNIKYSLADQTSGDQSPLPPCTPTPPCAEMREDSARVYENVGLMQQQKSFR
Chain of CYP2C8 (P10632 whole entry): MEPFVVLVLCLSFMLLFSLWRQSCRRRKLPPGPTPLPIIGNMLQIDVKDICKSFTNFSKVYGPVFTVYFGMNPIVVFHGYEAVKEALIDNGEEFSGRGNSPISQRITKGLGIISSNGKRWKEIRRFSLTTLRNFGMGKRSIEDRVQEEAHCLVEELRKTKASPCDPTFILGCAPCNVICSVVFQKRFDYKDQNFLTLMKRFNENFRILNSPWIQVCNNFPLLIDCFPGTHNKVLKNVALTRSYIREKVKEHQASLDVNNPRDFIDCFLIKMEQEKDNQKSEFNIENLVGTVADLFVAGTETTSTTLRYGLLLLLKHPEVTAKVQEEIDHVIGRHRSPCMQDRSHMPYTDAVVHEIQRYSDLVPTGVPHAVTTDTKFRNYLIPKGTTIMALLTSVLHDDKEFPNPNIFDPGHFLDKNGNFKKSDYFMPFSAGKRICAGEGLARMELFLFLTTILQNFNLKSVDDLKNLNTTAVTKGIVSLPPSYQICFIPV
Chain of CYP1A2 (P05177 whole entry): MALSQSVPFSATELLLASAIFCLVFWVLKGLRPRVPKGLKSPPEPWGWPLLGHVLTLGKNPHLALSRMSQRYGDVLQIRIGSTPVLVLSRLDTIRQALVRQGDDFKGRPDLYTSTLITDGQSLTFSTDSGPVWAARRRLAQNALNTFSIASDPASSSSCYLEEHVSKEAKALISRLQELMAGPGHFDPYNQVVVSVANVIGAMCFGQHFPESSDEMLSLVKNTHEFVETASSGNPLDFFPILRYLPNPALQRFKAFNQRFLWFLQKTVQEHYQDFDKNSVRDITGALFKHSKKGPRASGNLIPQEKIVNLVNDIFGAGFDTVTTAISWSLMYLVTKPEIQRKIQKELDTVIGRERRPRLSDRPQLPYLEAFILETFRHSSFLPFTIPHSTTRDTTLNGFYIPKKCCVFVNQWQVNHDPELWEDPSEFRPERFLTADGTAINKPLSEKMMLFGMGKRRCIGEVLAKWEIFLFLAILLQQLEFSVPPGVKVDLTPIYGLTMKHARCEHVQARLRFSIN

Take `Cc1nc(N2CCC3(CC2)Cc2ccccc2[C@H]3N)n2ccnc2c1Sc1ccnc(N)c1Cl` [Example 1, (S)-1′-(8-((2-amino-3-chloropyridin-4-yl)thio)-7-methylimidazo [1,2-c]pyrimidin-5-yl)-1,3-dihydrospiro [indene-2,4′-piperidine]-1-amine]: the IC50 at CYP2C8 was more than 25 µM; on SHP2 enzyme, 0.0044 µM; in the assay on H358 (lung cancer cells), less than 0.1 µM; with NCI-H 508 (lung cancer), less than 0.1 µM; in [1], less than 0.1 µM; in assay [2], less than 1 µM. For the same molecule, the IC50 is less than 0.1 µM in [3]; less than 1 µM in the assay on SNU16 (gastric cancer); less than 0.1 µM with MOLM 13 (leukemia cells); 0.011 µM with MV4-11 leukemia cells; more than 25 µM at CYP1A2.
Turning to `Nc1nccc(Sc2c(N)nc(N3CCC4(CC3)Cc3ccccc3[C@H]4N)n3ccnc23)c1Cl` [Example 4, (S)-1′-(7-amino-8-((2-amino-3-chloropyridin-4-yl)thio)imidazo [1,2-c]pyrimidin-5-yl)-1,3-dihydrospiro [indene-2,4′-piperidine]-1-amine], the IC50 against CYP2C8 is more than 25 µM; at SHP2 enzyme, 0.0019 µM; in the assay on H358 (lung cancer cells) it was less than 0.1 µM; with NCI-H 508 (lung cancer), less than 0.1 µM; in [1] it was less than 0.1 µM; in [2], less than 1 µM. For the same molecule, the IC50 in assay [3] was less than 0.1 µM; in the assay with SNU16 (gastric cancer), less than 1 µM; in the assay with MOLM 13 (leukemia cells) it was less than 0.1 µM; in the assay on MV4-11 leukemia cells, 0.0047 µM; at CYP1A2, more than 25 µM.
